Data published in PMC6260619, “Selective Cytotoxicity of Goniothalamin against Hepatoblastoma HepG2 Cells” (Molecules, 2011).

Tests used:
[1] = tested on: Chang cells; experiment: Trypan blue dye exclusion viable cell count, Chang; type: cell-based
Method: As supported by MTT and LDH results, goniothalamin inhibited cell proliferation towards HepG2 in a time- and dose-dependent manner as shown in the BrdU incorporation ELISA method. The effects of goniothalamin on HepG2 and Chang cell growth were also analyzed by viable cell counts using trypan blue dye exclusion assay for 24, 48 and 72 hours after treatment with different doses of goniothalamin. […] The ratio between viable cell numbers in goniothalamin-treated cells and control cells was reported as the Viablity Index (VI, Figure 5A and Figure 5B).
A half mL aliquot of cell suspension (obtained from treated and non-treated HepG2 and Chang cells), was mixed with 0.5 mL of 0.4% trypan blue dye and left for 5 min at room temperature). The cells were counted using the hemacytometer and the percentage of dead cells was determined.

[2] = tested on: Chang cells; experiment: Cell cycle PI analysis by flow cytometry, Chang; type: cell-based, human
Method: The effect of goniothalamin on the cell cycle distribution of non-malignant Chang cells was also assessed. […] Accordingly, goniothalamin induced a marked apoptosis in a time-dependent manner at IC50 concentrations. As expected, the increase in the apoptotic population was associated with a concomitant enlargement of the pre-phase population, as observed in cell cycle analysis.
(§1) The treated cells were trypsinized and washed with PBS. After centrifugation, the supernatant was removed. Then, 1 × 10^6 cells were harvested and fixed in ice-cold ethanol (70%). The fixed cells were centrifuged at high speed (180 × g) for 10 minutes to adequately pellet down the cells that were suspended in the ethanol. The pellet was washed by the ice-cold PBS and then centrifuged again at 180 × g for 10 minutes. The final pellet was resuspended with 1 mL of RNase and incubated at 37 °C for 30 minutes. At the end of incubation, DNA binding dye PI (1 mg/mL) was added to give a final concentration of 50 µg/mL. The mixture was incubated at room temperature for 10 min in the dark. Data acquisition and analysis were performed in by flow cytometry FACS Calibur flow cytometer (Becton Dickinson, Franklin Lakes, NJ, USA) using CellQuest 3.3 software.

[3] = tested on: HepG2 cells; experiment: BrdU cell proliferation ELISA, HepG2; type: cell-based, human
Method: To further confirm the potential of goniothalamin-induced cell death HepG2 cells, a BrdU cell proliferation assay was performed. The cell proliferation percentage was measured by the incorporation of the thymidine analogue bromodeoxyuridine into DNA. In untreated HepG2, the absorbances (OD) at 450 nm wavelength were 1.445, 2.188 and 2.553 for 24, 48 and 72 hours, respectively. The cell proliferation rate was reduced in a concentration dependent manner after the addition of goniothalamin, compared to untreated control cells after all the times (Figure 3). […] Inhibition of DNA synthesis at the highest concentration (150 µM) is also time-dependent and is the most severe.
To confirm anti-proliferative effects in goniothalamin-treated cells, BrdU cell proliferation kit was used. HepG2 and Chang cells were seeded at 1.5 × 10^5 cells/mL in a final volume of 100 μL in a 96-well culture dish and incubated overnight to allow the cells to adhere to the dish. Each sample was assayed in triplicate. Besides, the control samples include a blank (no cells) and background (cells without BrdU) was also prepared. […] Then, BrdU label (20 μL, diluted by 1/2,000 in media) was added to each well and incubated for 24 h at 37 °C. The media was discarded and replaced by fix/denaturing solution (200 μL). The plate was incubated for 30 min at room temperature. The fix/denaturing solution was removed by inverting the plate. Then, BrdU antibody (100 μL, diluted by 1/100 in dilution buffer) was added to each well and left for 1 hour at room temperature. The cells were washed 3 times with wash buffer. After that, secondary antibody (100 μL, anti-mouse IgG HRP conjugated) was added to each well for 30 min. The washing step was done three times with wash buffer and once with distilled water. The distilled water was removed and substrate solution (100 μL) was added to each well. The plate was left for 15 min at room temperature in the dark condition. Finally, stop solution (100 μL) was added to the wells and absorbance measured at 450–540 nm.

[4] = tested on: HepG2 cells; experiment: Cell cycle PI analysis by flow cytometry, HepG2; type: cell-based, human
Method: The ability of a substance to affect specific phases of the cell cycle may provide clues as to its mechanism(s) of action. To determine the effects of goniothalamin on the cell cycle, HepG2 cells were treated with IC50 levels of goniothalamin (determined from the MTT assay) for 24, 48 and 72 hours, respectively. The cells were stained with PI and the DNA contents analyzed by flow cytometry.
as §1

[5] = 24h, at IC50 (goniothalamin 79.10 µM; doxorubicin 0.83 µM)
[6] = 48h, at IC50 (goniothalamin 63.75 µM; doxorubicin 0.41 µM)
[7] = 72h, at IC50 (goniothalamin 35.01 µM; doxorubicin 0.28 µM)
[8] = HepG2, 24h, at IC50 (goniothalamin 9.2 µM; doxorubicin 2.2 µM)
[9] = HepG2, 48h, at IC50 (goniothalamin 8.3 µM; doxorubicin 4.3 µM)
[10] = HepG2, 72h, at IC50 (goniothalamin 4.6 µM; doxorubicin […])

## O=C1C=CC[C@H](/C=C/c2ccccc2)O1 [Goniothalamin, 5-hydroxy-7-phenylhepta-2,6-dienoic acid lactone]
[1]; at IC50, 72 hours
  Viability Index: 62 ± 4.36%
[1]; doses comparable to 2.3 µM
  cytotoxicity (cell count, trypan blue): no obvious cytotoxicity
[2]; [5]
  G0/G1: 55.08 ± 3.60%
  G2+M: 14.89 ± 5.53%
  S: 12.65 ± 2.79%
  SubG0/G1: 17.38 ± 7.29%
[2]; [6]
  G0/G1: 58.68 ± 9.45%
  G2+M: 2.5 ± 5.89%
  S: 5.82 ± 0.16%
  SubG0/G1: 33.00 ± 3.40%
[2]; [7]
  G0/G1: 11.60 ± 0.07%
  G2+M: 2.5 ± 0.44%
  S: 4.91 ± 0.13%
  SubG0/G1: 80.99 ± 0.64%
[3]; HepG2, IC50 concentration, 24 hours, untreated 1.445
  OD value at 450 nm (BrdU incorporation): 0.635
[3]; HepG2, IC50 concentration, 72 hours, untreated 2.553
  OD value at 450 nm (BrdU incorporation): 0.372
[3]; HepG2, lowest concentration (2.3 µL as printed), 72 hours
  cell proliferation as compared to control (BrdU): 19.8%
[3]; HepG2, lowest concentration, 72 hours, untreated 2.553
  OD value at 450 nm (BrdU incorporation): 0.505
[4]; [8]
  G0/G1: 68.92 ± 1.27%
  G2+M: 5.94 ± 0.22%
  S: 7.68 ± 0.12%
  SubG0/G1: 17.44 ± 1.67%
[4]; [9]
  G0/G1: 39.71 ± 3.50%
  G2+M: 5.67 ± 4.13%
  S: 8.03 ± 0.29%
  SubG0/G1: 46.59 ± 2.79%
[4]; [10]
  G0/G1: 31.79 ± 5.82%
  G2+M: 2.31 ± 4.19%
  S: 7.07 ± 0.18%
  SubG0/G1: 58.83 ± 2.09%
[4]; HepG2, 72h, at IC50 (goniothalamin 4.6 µM; doxorubicin […]), listed as goniothalamin
  SubG0/G1: 59%
